Results reported in US6867015B1, “Rapid microbiological test for the detection of antibacterial compounds” (Gist-Brocades B.V., priority 1995, dated 2005).

Key:
Assay type in all cases: cell-based
[1] = system: Bacillus stearothermophilus var. calidolactis spores C953; assay: Test type C: microtiterplates with agar medium containing trimethoprim, milk sample
Experimental: For the preparation of the test plates (test type C) the procedure described in Example I was followed except that the nutrients described in Example III (dextrose, tryptose and yeast extract) were not added separately but were added to the initial agar medium in the same concentration as described in Example I. Also together with the buffer solution an amount of trimethoprim solution was added to give a final concentration of 60 μg per litre. To the wells of sterile microtiterplates 20 μl of the agar solution was added under asceptic conditions. The plates were immediately sealed with aluminium foil. The plates were stored at a temperature between 5° C. and 15° C. An amount of penicillin G of 3 ppb was added to fresh cow's milk. […] The control sample contained no penicillin G or sulphadiazine. The microtiterplates were opened by removing the seal. Then 20 μl of each of the three milk samples was added to each of the test plates (duplo) containing different concentrations of Bacillus stearothermophilus var. calidolactis spores […]. The plates were immediately placed in a waterbath kept at 64° C. Observations were made after 30 minutes to 150 minutes. The time at which the colour of the agar medium became yellow was determined. As is shown in table 2, the test duration correlated with the amount of spores added to the agar medium without influencing the sensitivity of the test in a negative way.

[2] = system: Bacillus stearothermophilus var. calidolactis C953 spores; assay: Test type B: agar test tubes with Brilliant Black and Toluidine Blue, milk sample
Experimental: Test tubes of type B contained an agar medium prepared as follows: A solution was made of 10 g agar, 9 g sodium chloride, 2 g glucose, 2 g peptone, 2 g tryptone, 4 g yeast extract and 50 ml of a 0.1 M triethanolamine buffer solution (pH=8.0) in 1000 ml distilled water. The final solution was sterilized for 20 minutes at 121° C. and cooled to about 60° C. An amount of a solution of Brilliant Black to give a final concentration of 80 mg per 1000 ml and an amount of a solution of Toluidine Blue to give a final concentration of 3 mg per 1000 ml were also added. To this solution different amounts of a suspension of Bacillus stearothermophilus var. caildolactis C953 spores In distilled water were added to give final concentrations between 10^8 and 10^10 spores per ml. Sterile tubes with a diameter of about 9 mm were filled with 0.3 ml of the agar solution under aseptic conditions and Immediately sealed e.g. with an aluminum foil. The agar solution In the test tubes was allowed to solidity in the test tubes while the test tubes were held in an upright position. The tubes were stored at a temperature between 5° C. and 15° C. An amount of penicillin G of 0.003 I.U. per ml was added to fresh cow's milk. The control sample contained no penicillin G. Two of each of the test tubes of type B with concentrations of Bacillus stearothermophilus var. calidolactis spores as described in Example II were opened by removing the seal. Then 0.1 ml of each of the two milk samples was added to each of the test tubes and the test tubes were immediately placed in a waterbath kept at 64° C. Observations were made after 30 minutes to 3 hours. The time at which the colour of the agar medium became yellow was determined. As is shown in Table 1, the test duration correlated with the amount of spores added to the agar medium without influencing the sensitivity of the test in a negative way.

[3] = system: Streptococcus thermophilus T101 (DSM 4022); assay: Test type D: detection of antibiotics in milk without agar, bromocresolpurple; settings: test duration of 80 minutes
Experimental: In this experiment Streptococcus thermophilus […] (DSM 4022) was sed for the determination of antibiotics in milk. Streptococcus thermophilus […] was grown using methods known per se. An amount of a solution of bromocresolpurple to give a final concentration of […] was added to fresh cow's milk. To part of the fresh cow's milk also an amount of penicillin G of 4 ppb added. The control sample contained no penicillin G. To the milk samples different amounts of Streptococcus thermophilus […] were added to give final concentrations between 10^7 and 10^9 CFU per ml. Immediately after preparation of the samples sterile tubes with a diameter of about 9 mm were filled with 0.3 ml of each milk sample (duplo). The tubes were immediately placed in a waterbath kept at 42° C. Observations were made after 30 minutes to 2 hours and 30 minutes. The time at which the colour of the agar medium became yellow was determined. As is shown in table 3, the test duration correlated with the amount of cells added to the milk without influencing the sensitivity of the test in a negative way.

[4] = system: Bacillus stearothermophilus var. calidolactis C953 spores; assay: Test type A: agar test tubes with bromocresolpurple and nutrient tablet, milk sample; settings: fresh cow's milk, 64° C.
Experimental: Test tubes of type A contained an agar medium prepared as follows: A solution was made of 12 g agar, 9 g sodium chloride and 50 ml of a 0.1 M triethanolamine buffer solution (pH=8.0) in 1000 ml distilled water. An amount of a solution of bromocresolpurple to give a final concentration of 20 mg per 1000 ml was also added. The final solution was sterilized for 20 minutes at 121° C. and cooled to about 60° C. To this solution different amounts of a suspension of Bacillus stearothermophilus var. calidolactis […] spores in distilled water were added to give final concentrations between 10^5 and 10^10 spores per ml. Sterile tubes with a diameter of about 9 mm were filled with 0.3 ml of the agar solution under aseptic conditions and immediately sealed, e.g. with aluminium foil. The agar solution in the test tubes was allowed to solidify in the test tubes while the test tubes were held in an upright position. The tubes were stored at a temperature between 5° C. and 15° C. A mixture was made of 100 g dextrose, 160 g Avicel PH101, 50 g tryptose, 14 g yeast extract and 15 g precirol. This mixture was sufficient to prepare about 18000 tablets with a diameter of approximately 3 mm and a thickness of approximately 1.9 mm. […] The time at which the colour of the agar medium became yellow was determined. […]

Row | Structure (SMILES) | concentration that can be detected ([1]; test duration of 80 minutes) | concentration that can be detected ([1]; test duration of 90 minutes) | concentration detected in a milk sample ([2]; as little as 70 minutes, test organism more than 10^7 CFU per ml) | concentration that can be detected ([2]; test type B, test duration of 70 minutes, milk) | concentration detected in a milk sample ([2]; test unit of 0.3 ml agar solution in upright test tube of internal diameter 9 mm) | concentration that can be detected [3] | detectable amount of antibacterial compound (agar medium blue) [4]
1 | CC1(C)S[C@@H]2[C@H](NC(=O)Cc3ccccc3)C(=O)N2[C@H]1C(=O)O [penicillin G] | 3 ppb | 3 ppb | 0.003 IU/ml | 0.003 I.U. per ml | 0.003 lU/ml | ≥ 4 ppb | ≥ 0.003 I.U. per ml
2 | Nc1ccc(S(=O)(=O)Nc2ncccn2)cc1 [sulphadiazine] |  | 100 ppb |  |  |  |  | 
